From article PMC8510274, “Plasma-Induced Oxidation Products of (–)-Epigallocatechin Gallate with Digestive Enzymes Inhibitory Effects” (Molecules, 2021)
Where two headings read alike, the source gives them in different places.

Experiments:
[1] = target: T1, α-glucosidase (EC 3.2.1.20) from Saccharomyces cerevisiae (Saccharomyces cerevisiae, UniProt P53341); experiment: biochemical
T1 construct: purchased Sigma-Aldrich
Protocol: (§1) The specific optical rotation was obtained using a JASCO P-2000 polarimeter (JASCO, Tokyo, Japan), and fast atom bombardment mass spectrometry (FABMS) was recorded on a JMS-700 spectrometer (JEOL, Tokyo, Japan) in negative mode.
The α-glucosidase inhibitory activities of the compounds were evaluated using a minor modification of a previously reported method. The reaction mixture consisted of an enzyme solution (0.5 unit of α-glucosidase, 90 μL), a substrate (1 mM p-NPG, 100 μL) in a 0.1 M phosphate buffer (pH 7.0), and the isolated compounds, and positive control in 5% DMSO (10 μL). After incubation at 37 °C for 30 min, 0.1 M NaOH was added to quench the reaction.
(§2) The α-amylase inhibition assay was performed using a previously reported method with slight modifications. Porcine pancreatic α-amylase (1 unit, 90 µL) was incubated with the sample, and the positive control, at various concentrations. The reaction was started by adding 100 µL of a 1% potato starch solution, in 20 mM phosphate buffer (pH 6.9), to the reaction mixture. […] The mixture was then boiled at 80 °C for 10 min in a water bath and then cooled on ice. The α-amylase inhibitory activity was measured at 540 nm using an ELISA reader. Enzyme inhibition (%) = [1−(A1/A0)] × 100(1) where A0 and A1 are the absorbance of the control and sample, respectively. The α-glucosidase and α-amylase inhibition (%) was calculated, and the half-maximal inhibitory concentration (IC50) was determined by linear regression analysis of the inhibitory activities under the assay conditions.

[2] = target: T2, Porcine pancreatic α-amylase (Sus scrofa, UniProt P00690); experiment: α-amylase inhibition assay (potato starch, DNS reagent); assay type: biochemical
T2 construct: purchased Sigma-Aldrich; host or cells: porcine pancreas
T2 sequence (P00690 16-511): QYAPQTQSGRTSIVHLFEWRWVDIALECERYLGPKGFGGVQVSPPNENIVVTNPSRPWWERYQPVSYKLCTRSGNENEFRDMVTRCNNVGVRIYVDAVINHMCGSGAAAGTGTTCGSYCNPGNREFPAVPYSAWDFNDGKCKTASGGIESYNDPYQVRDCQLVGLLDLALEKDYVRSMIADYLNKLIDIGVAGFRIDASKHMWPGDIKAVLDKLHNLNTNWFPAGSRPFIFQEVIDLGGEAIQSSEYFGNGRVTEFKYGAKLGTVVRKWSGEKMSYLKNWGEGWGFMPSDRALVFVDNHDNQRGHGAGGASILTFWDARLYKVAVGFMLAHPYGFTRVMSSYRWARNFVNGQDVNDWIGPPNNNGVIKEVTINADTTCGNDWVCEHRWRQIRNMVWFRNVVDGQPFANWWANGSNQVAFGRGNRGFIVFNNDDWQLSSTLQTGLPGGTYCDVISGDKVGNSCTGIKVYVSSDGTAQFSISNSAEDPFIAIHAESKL
Protocol: as §1, §2

[3] = isolated compounds, triplicate, acarbose positive control, read-out: IC50 Value α-Amylase (converted)
[4] = IC50 Value α-Glucosidase, isolated compounds, triplicate, acarbose positive control

T1 sequence (P53341 whole entry): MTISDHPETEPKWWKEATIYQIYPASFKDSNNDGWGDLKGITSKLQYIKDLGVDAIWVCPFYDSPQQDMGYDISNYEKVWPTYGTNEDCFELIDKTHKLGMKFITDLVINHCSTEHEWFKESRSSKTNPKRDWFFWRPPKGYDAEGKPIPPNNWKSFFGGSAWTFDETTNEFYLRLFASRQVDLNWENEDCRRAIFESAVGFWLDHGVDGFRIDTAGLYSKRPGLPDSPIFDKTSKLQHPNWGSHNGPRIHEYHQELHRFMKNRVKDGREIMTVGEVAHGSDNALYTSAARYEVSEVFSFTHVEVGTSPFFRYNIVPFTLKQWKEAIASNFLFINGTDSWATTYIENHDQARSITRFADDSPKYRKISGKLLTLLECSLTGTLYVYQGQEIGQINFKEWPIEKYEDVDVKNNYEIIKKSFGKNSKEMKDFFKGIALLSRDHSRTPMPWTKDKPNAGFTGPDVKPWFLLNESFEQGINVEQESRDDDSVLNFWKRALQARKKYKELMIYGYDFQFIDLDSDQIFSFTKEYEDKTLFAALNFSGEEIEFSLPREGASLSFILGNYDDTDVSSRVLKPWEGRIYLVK

Structure (SMILES) | IC50 ([1]; read-out: IC50 Value α-Glucosidase) | IC50 [2, 3] | IC50 [1, 4] | IC50 [2] | IC50 ([1]; IC50 Value α-Glucosidase, plasma irradiation time 0 min (control, parent EGCG)) | IC50 ([2]; plasma irradiation time 0 min (control, parent EGCG), read-out: IC50 Value α-Amylase (converted))
O=C(O[C@@H]1Cc2c(O)cc(O)cc2O[C@@H]1C1=CC(=O)C2(O)C3C([C@H]4Oc5cc(O)cc(O)c5C[C@H]4OC(=O)c4cc(O)c(O)c(O)c4)=CC(=O)C4(O)C1C2(O)OC34O)c1cc(O)c(O)c(O)c1 (stereo partly shown) [Compound 1, EGCG quinone dimer A] | 15.9 ± 0.3 µM | 18.7 ± 0.3 µM | – | – | – | –
O=C(O[C@@H]1Cc2c(O)cc(O)cc2O[C@@H]1C1=CC(=O)[C@]2(O)C(=O)c3c(cc(O)c(O)c3O)[C@H]12)c1cc(O)c(O)c(O)c1 [Compound 2, theacitrinin A] | – | – | 20.7 ± 0.5 µM | 25.3 ± 0.6 µM | – | –
O=C(O)c1cc(O)c(O)c(O)c1 [Compound 3, gallic acid] | – | – | > 300 µM | > 300 µM | – | –
O=C(O[C@@H]1Cc2c(O)cc(O)cc2O[C@@H]1c1cc(O)c(O)c(O)c1)c1cc(O)c(O)c(O)c1 [EGCG, (−)-Epigallocatechin gallate, reference compound] | – | 75.5 ± 1.3 µM | 97.2 ± 1.2 µM | – | 97.1 µM | 75.3 µM
